From ChEMBL document CHEMBL5584340, “Discovery of Novel Antiosteoporosis Leads with Bone Resorption Inhibition and Anabolic Promotion through a Chemotype-Assembly Approach” (J Med Chem, 2024)
The source made the active and inactive calls. The rule behind the calls is not given here.

Key:
BMDM [1] = experiment: Anti-osteoclastogenic activity in M-CSF/RANKL-induced C57BL/6 mouse BMDM cells assessed as inhibition of M-CSF/RANKL-stimulated osteoclast differentiation at 10 uM measured after 5 days by TRAP staining based microscopic analysis relative to control; type: functional; parameters: scale not given: the % may be the effect or the level left; details: time 5 day
BMDM [2] = experiment: Anti-osteoclastogenic activity in M-CSF/RANKL-induced C57BL/6 mouse BMDM cells assessed as inhibition of M-CSF/RANKL-stimulated osteoclast differentiation measured after 5 days by TRAP staining based microscopic analysis; type: functional, cell-based; details: C57BL/6, BMDM, 120 h
C3H 10T1/2 [3] = experiment: Anabolic activity in mouse C3H 10T1/2 cells by measuring fold change in osteoblast differentiation at 10 uM incubated for 7 days by ALP staining based analysis; type: functional; details: time 7 day
[4] = Cytotoxicity against mouse RAW264.7 cells incubated for 48 hrs by CCK-8 assay; type: toxicity, cell-based
C3H 10T1/2 [5] = experiment: Induction of osteoblast mineralization in mouse C3H 10T1/2 cells assessed as increase in calcium deposition at 1 uM measured after 14 days by Alizarin Red S staining based analysis; type: functional, cell-based; details: time 14.0 day
BMDM [6] = experiment: Anti-osteoclastogenic activity in M-CSF/RANKL-induced C57BL/6 mouse BMDM cells assessed as downregulation of ATP6VOD2 mRNA expression at 1 uM incubated for 7 days by RT-qPCR analysis; type: functional, cell-based; details: time 7.0 day
C3H 10T1/2 [7] = experiment: Induction of osteoblastogenesis in mouse C3H 10T1/2 cells assessed as upregulation of ALP gene expression at 1 uM incubated for 7 days by RT-qPCR analysis; type: functional, cell-based; details: time 7.0 day
BMDM [8] = experiment: Anti-osteoclastogenic activity in M-CSF/RANKL-induced C57BL/6 mouse BMDM cells assessed as downregulation of TRACP mRNA expression at 1 uM incubated for 7 days by RT-qPCR analysis; type: functional, cell-based; details: time 7.0 day
BMDM [9] = experiment: Anti-osteoclastogenic activity in M-CSF/RANKL-induced C57BL/6 mouse BMDM cells assessed as downregulation of CTSK mRNA expression at 1 uM incubated for 7 days by RT-qPCR analysis; type: functional, cell-based; details: time 7.0 day
C3H 10T1/2 [10] = experiment: Induction of osteoblastogenesis in mouse C3H 10T1/2 cells assessed as upregulation of SPARC gene expression at 1 uM incubated for 7 days by RT-qPCR analysis; type: functional, cell-based; details: time 7.0 day
BMDM [11] = experiment: Anti-osteoclastogenic activity in M-CSF/RANKL-induced C57BL/6 mouse BMDM cells assessed as downregulation of C-Fos mRNA expression at 1 uM incubated for 7 days by RT-qPCR analysis; type: functional, cell-based; details: time 7.0 day
C3H 10T1/2 [12] = experiment: Induction of osteoblastogenesis in mouse C3H 10T1/2 cells assessed as upregulation of SP7 gene expression at 1 uM incubated for 7 days by RT-qPCR analysis; type: functional, cell-based; details: time 7.0 day
C3H 10T1/2 [13] = experiment: Induction of osteoclastogenesis in mouse C3H 10T1/2 cells assessed as upregulation of RANKL gene expression at 1 uM incubated for 7 days by RT-qPCR analysis; type: functional, cell-based; details: time 7.0 day
C3H 10T1/2 [14] = experiment: Induction of osteoblast differentiation in mouse C3H 10T1/2 cells at 10 uM incubated for 7 days by ALP staining based analysis; type: functional, cell-based; details: time 7.0 day
C3H 10T1/2 [15] = experiment: Induction of osteoblast mineralization in mouse C3H 10T1/2 cells assessed as increase in calcium deposition at 10 uM measured after 14 days by Alizarin Red S staining based analysis; type: functional, cell-based; details: time 14.0 day

| Compound | Activity (BMDM [1]) | IC50 (BMDM [2]) | also measured |
| --- | --- | --- | --- |
| O=C1NC(=O)C(=NNc2cccc(C(=O)O)c2)C(=O)N1 | <10% | – | – |
| O=C(O)c1ccc2[nH]c(-c3cccc(-c4nc5cc(C(=O)O)ccc5[nH]4)c3)nc2c1 | 20% | – | – |
| NCCCC(O)(P(=O)([O-])O)P(=O)(O)O.[Na+] [ALENDRONATE SODIUM] | 81% | 0.39 µM | – |
| NC(Cc1cc(I)c(Oc2cc(I)c(O)c(I)c2)c(I)c1)C(=O)O (configuration not stated) [THYROXINE] | <10% | – | – |
| Cc1cccc(C)c1NC(=O)c1ccccc1C(=O)O [FTAXILIDE] | 80% | – | fold change (FC) (C3H 10T1/2 [3]): 6 |
| CN1C(=O)[C@@H](/N=N/c2ccccc2C(=O)O)N(C)C1=S | 50% | – | fold change (FC) (C3H 10T1/2 [3]): 3.9 |
| Cn1ncc2c(Nc3ccc(C(=O)O)cc3)ncnc21 | 50% | – | fold change (FC) (C3H 10T1/2 [3]): 3.2 |
| O=C(O)c1ccc(-c2cnc3ccccc3n2)cc1 | <10% | – | – |
| COc1ccc(-c2nc(NC(=O)C3CCCCC3C(=O)O)sc2C)cc1 (configuration not stated) | <10% | – | – |
| CCc1ccc(-c2cc(C(=O)O)c3ccccc3n2)cc1 | 30% | – | – |
| O=C(O)c1cccc(Nc2nc3ccccc3[nH]2)c1 | 33% | – | – |
| O=C(O)c1cc(Cl)ccc1C(=O)Nc1nc2ccccc2s1 | – | 3.5 µM | CC50 at 48 h [4]: 1330 µM |
| Cc1cc(C)c(S(=O)(=O)Nc2ccc(C(=O)O)cc2)cc1C | <10% | – | – |
| Nc1cccc(-c2cc(C(=O)O)c3ccccc3n2)c1 | 50% | – | fold change (FC) (C3H 10T1/2 [3]): <2 |
| O=C(Nc1nccs1)c1cccc(F)c1C(=O)O | – | 3.16 µM | CC50 at 48 h [4]: 930 µM |
| COC(=O)c1ccccc1C(=O)Nc1nccs1 | – | 28.1 µM | CC50 at 48 h [4]: 498 µM |
| Cc1ccc(-c2nc3ccccc3c(C(=O)O)c2C)cc1 | <10% | – | – |
| Cc1ccc(C(=O)Nc2nccs2)c(C(=O)O)c1 | – | 12.8 µM | CC50 at 48 h [4]: 46.9 µM |
| COc1ccccc1-c1cc(C(=O)O)c2ccccc2n1 | <10% | – | – |
| Cc1csc(NC(=O)c2ccccc2C(=O)O)n1 | – | 12.4 µM | CC50 at 48 h [4]: 212 µM |
| CCOC(=O)c1sc(NC(=O)c2cc3ccccc3cc2C(=O)O)nc1C | – | 2.35 µM | CC50 at 48 h [4]: 506 µM |
| COc1ccc(-c2cc(C(=O)O)c3ccccc3n2)cc1OC | 40% | – | – |
| O=C(O)c1ccccc1C(=O)Nc1nc2ccccc2s1 | – | 2.35 µM | CC50 at 48 h [4]: 380 µM |
| Cc1ccc(-c2cc(C(=O)O)c3ccccc3n2)c(C)c1 | <10% | – | – |

| Compound | Activity (BMDM [1]) | IC50 (BMDM [2]) | also measured |
| --- | --- | --- | --- |
| O=C(O)c1cc2ccccc2cc1C(=O)Nc1nccs1 | – | 1.05 µM | Activity (C3H 10T1/2 [5]): Active; Activity (BMDM [6]): Active; Activity (C3H 10T1/2 [7]): Active; Activity (BMDM [8]): Active; Activity (BMDM [9]): Active; Activity (C3H 10T1/2 [10]): Active; Activity (BMDM [11]): Active; Activity (C3H 10T1/2 [12]): Active; Activity (C3H 10T1/2 [13]): inactive; CC50 at 48 h [4]: 490 µM |
| O=C(O)c1ccc(N2C(=O)CSC2=S)cc1 | 79% | – | fold change (FC) (C3H 10T1/2 [3]): 7.5 |
| CN(CCCC(=O)O)c1nc(-c2ccc(Br)cc2)cs1 | <10% | – | – |
| Cc1ccc(-c2cc(C(=O)O)c3cccc(C)c3n2)cc1 | <10% | – | – |
| COc1cccc(C(=O)O)c1C(=O)Nc1nccs1 | – | 3.94 µM | CC50 at 48 h [4]: 36.3 µM |
| O=C(Nc1nccs1)c1cccc(O)c1C(=O)O | – | > 33 µM | – |
| CCOC(=O)c1sc(NC(=O)c2ccccc2C(=O)O)nc1C | – | > 33 µM | – |
| O=C(O)C1OC(Oc2cc3oc(-c4ccc(O)cc4)cc(=O)c3c(O)c2O)C(O)C(O)C1O (configuration not stated) | 80% | – | fold change (FC) (C3H 10T1/2 [3]): <2 |
| O=C(O)c1ccccc1SCc1cc(O)nc(O)n1 | 90% | – | fold change (FC) (C3H 10T1/2 [3]): 8.2 |
| Cc1cccc(NC(=O)c2ccccc2C(=O)O)c1C | <10% | – | – |
| Cc1cccc(C(=O)Nc2scc(-c3cccs3)c2C(=O)O)c1 | <10% | – | – |
| O=C(O)c1ccccc1C(=O)Nc1nccs1 | 75% | 8.5 µM | Activity (C3H 10T1/2 [7]): Active; Activity (C3H 10T1/2 [10]): Active; Activity (C3H 10T1/2 [12]): Active; Activity (C3H 10T1/2 [14]): Active; Activity (C3H 10T1/2 [13]): inactive; fold change (FC) (C3H 10T1/2 [3]): 11.4; Activity (C3H 10T1/2 [15]): Active; CC50 at 48 h [4]: 178 µM |
| O=C(O)c1cc(Cl)ccc1C(=O)Nc1nccs1 | – | 2.02 µM | CC50 at 48 h [4]: 144 µM |
| Cc1ccc(C)c(-c2cc(C(=O)O)c3ccccc3n2)c1 | <10% | – | – |
| Cc1ccc2nc(-c3ccc(Cl)cc3)cc(C(=O)O)c2c1 | 80% | – | fold change (FC) (C3H 10T1/2 [3]): 2.4 |
| O=C(O)c1ccccc1C(=O)Nc1ccccn1 | – | 14.4 µM | CC50 at 48 h [4]: 3820 µM |
| NC(Cc1cc(I)c(Oc2ccc(O)c(I)c2)c(I)c1)C(=O)O (configuration not stated) [RATHYRONINE] | <10% | – | – |
| COc1cccc(-c2cc(C(=O)O)c3ccccc3n2)c1 | <10% | – | – |
| Cc1cc(C(=O)O)ccc1-c1ccc(CO)o1 | <10% | – | – |
| COc1ccc(-c2occ(C(=O)O)c2C(=O)O)cc1 | <10% | – | – |
| O=C(O)c1cccc(NS(=O)(=O)c2ccc(I)cc2)c1 | <10% | – | – |
| O=C(O)c1ccccc1C(=O)Nc1nc2c(s1)CCCC2 | <10% | – | – |
| Nc1ccc(-c2cc(C(=O)O)c3ccccc3n2)cc1 | <10% | – | – |
| CC(C)(C)c1ccc(-c2cc(C(=O)O)c3ccccc3n2)cc1 | 80% | – | fold change (FC) (C3H 10T1/2 [3]): <2 |
